According to the NIST ThermoML archive (doi:10.1016/j.jct.2018.12.037):

Assays:
[1] = refractive index (Na D-line) (dimensionless); xn = mol fraction of the nth substance listed; conditions: 293.15 K; 100 kPa; Liquid; Standard Abbe refractometry; x1 = 0.52
[2] = xn = mol fraction of the nth substance listed; conditions: 100 kPa, Liquid, Vibrating tube method, x1 = 0.52

C[C@@H]1CC[C@H](C)O1 [cis-2,5-dimethyltetrahydrofuran] + C[C@@H]1CC[C@@H](C)O1
Conditions	refractive index
[1]	1.4043

[2]
Conditions	mass density [kg/m3]
273.15 K	848.22
283.15 K	838.53
293.15 K	828.71
298.15 K	823.89
303.15 K	818.91
